The values that follow come from publication PMC7373191, “Escherichia coli K-12 Lacks a High-Affinity Assimilatory Cysteine Importer” (mBio, 2020).

Common to all, as to assay type: cell-based, Escherichia coli
The target in data set [1] is T1, (UniProt P04816+P0AD96).
T1 construct: gene livJ; native chromosomal ABC importer in whole cells; other candidate importers deleted
In words: inhibition of […]cysteine uptake into whole cells, filtration. As to conditions: read-out: 50% inhibition.

In data set [2] the target is T1, (UniProt P04816+P0AD96). In words: inhibition of […]leucine uptake into whole cells, filtration. The following applies: read-out: 50% inhibition.
Substrate in data set [3]: N[C@@H](CS)C(=O)O
In words: cells, lysate or membranes. The following applies: strain ZYD214, no other amino acids, 93-s time point, 37 °C, minimal glucose medium pH 7.0, DTPA and chloramphenicol, labelled compound.

T1 sequence (P22731 whole entry, one chain of several): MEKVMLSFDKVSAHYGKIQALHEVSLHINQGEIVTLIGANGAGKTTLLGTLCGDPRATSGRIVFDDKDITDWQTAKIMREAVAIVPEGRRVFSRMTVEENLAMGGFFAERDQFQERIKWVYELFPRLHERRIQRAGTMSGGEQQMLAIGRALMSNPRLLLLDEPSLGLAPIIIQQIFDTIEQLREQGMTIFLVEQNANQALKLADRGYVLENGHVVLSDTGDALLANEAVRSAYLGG
T1 sequence (P0AEX7 whole entry, one chain of several, further chain): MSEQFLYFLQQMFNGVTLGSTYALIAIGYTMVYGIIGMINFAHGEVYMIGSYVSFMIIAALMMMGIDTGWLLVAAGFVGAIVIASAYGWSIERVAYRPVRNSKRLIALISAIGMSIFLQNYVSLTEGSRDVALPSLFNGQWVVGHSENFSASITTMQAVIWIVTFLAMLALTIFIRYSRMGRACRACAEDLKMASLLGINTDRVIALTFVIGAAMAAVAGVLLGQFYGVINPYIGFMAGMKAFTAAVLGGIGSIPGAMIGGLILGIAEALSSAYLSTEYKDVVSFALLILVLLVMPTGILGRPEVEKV
T1 sequence (P22729 whole entry, one chain of several, further chain): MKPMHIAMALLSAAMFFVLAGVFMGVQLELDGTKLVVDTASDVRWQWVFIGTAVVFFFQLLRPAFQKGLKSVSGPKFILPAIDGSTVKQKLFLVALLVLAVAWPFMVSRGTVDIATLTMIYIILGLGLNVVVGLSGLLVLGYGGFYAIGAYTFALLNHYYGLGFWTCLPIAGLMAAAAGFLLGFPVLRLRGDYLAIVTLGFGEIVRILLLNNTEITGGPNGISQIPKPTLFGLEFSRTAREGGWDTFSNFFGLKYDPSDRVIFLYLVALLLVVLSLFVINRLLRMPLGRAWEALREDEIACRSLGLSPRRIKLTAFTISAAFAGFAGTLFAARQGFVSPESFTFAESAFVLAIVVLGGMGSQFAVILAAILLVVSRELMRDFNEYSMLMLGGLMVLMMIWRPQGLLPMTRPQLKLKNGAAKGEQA
T1 sequence (P0A9S7 whole entry, one chain of several, further chain): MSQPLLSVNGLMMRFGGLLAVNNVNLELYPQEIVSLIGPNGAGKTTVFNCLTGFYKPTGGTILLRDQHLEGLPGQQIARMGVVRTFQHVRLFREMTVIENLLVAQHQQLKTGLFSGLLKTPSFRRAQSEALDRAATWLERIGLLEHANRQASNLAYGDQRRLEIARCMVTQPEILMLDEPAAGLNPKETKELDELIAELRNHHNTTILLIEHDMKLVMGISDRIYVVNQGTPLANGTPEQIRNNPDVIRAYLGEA

Take `CC(C)C[C@H](N)C(=O)O` [leucine]: the IC50 at (UniProt P04816+P0AD96) [1] is around 2 µM.
As to `N[C@@H](CS)C(=O)O` [cysteine], the IC50 at (UniProt P04816+P0AD96) [2] is around 400 µM.

B1: LIV system (LivJ/LivKHMGF) (Escherichia coli K-12) (protein)
chain 1: EDIKVAVVGAMSGPVAQYGDQEFTGAEQAVADINAKGGIKGNKLQIVKYDDACDPKQAVAVANKVVNDGIKYVIGHLCSSSTQPASDIYEDEGILMITPAATAPELTARGYQLILRTTGLDSDQGPTAAKYILEKVKPQRIAIVHDKQQYGEGLARAVQDGLKKGNANVVFFDGITAGEKDFSTLVARLKKENIDFVYYGGYHPEMGQILRQARAAGLKTQFMGPEGVANVSLSNIAGESAEGLLVTKPKNYDQVPANKPIVDAIKAKKQDPSGAFVWTTYAALQSLQAGLNQSDDPAEIAKYLKANSVDTVMGPLTWDEKGDLKGFEFGVFDWHANGTATDAK
chain 2: DDIKVAVVGAMSGPIAQWGDMEFNGARQAIKDINAKGGIKGDKLVGVEYDDACDPKQAVAVANKIVNDGIKYVIGHLCSSSTQPASDIYEDEGILMISPGATNPELTQRGYQHIMRTAGLDSSQGPTAAKYILETVKPQRIAIIHDKQQYGEGLARSVQDGLKAANANVVFFDGITAGEKDFSALIARLKKENIDFVYYGGYYPEMGQMLRQARSVGLKTQFMGPEGVGNASLSNIAGDAAEGMLVTMPKRYDQDPANQGIVDALKADKKDPSGPYVWITYAAVQSLATALERTGSDEPLALVKDLKANGANTVIGPLNWDEKGDLKGFDFGVFQWHADGSSTAAK
notes: native chromosomal ABC importer in whole cells; other candidate importers deleted
In the case of B1, the Km in data set [3] is 20 µM.
